Measured values: ChEMBL document CHEMBL1201862, “PubChem BioAssay data set” (2004)
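Results reflect a 48-hour exposure of cells in 96-well plates to compound at five concentrations. At the GI50, growth is halved.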 Active and inactive are the calls of the source. No stated cut-off is given here; in the data, active = GI50 up to about 1.1 µM and inactive = higher.

Legend:
Assay in all cases: NCI anticancer screen, dose series, 48 h
IGROV-1 = system: IGROV-1
M14 = system: M14
SW-620 = system: SW-620
MDA-MB-435 = system: MDA-MB-435
PC-3 = system: PC-3
A549 = system: A549
CCRF-CEM = system: CCRF-CEM
OVCAR-5 = system: OVCAR-5
SNB-19 = system: SNB-19
TK-10 = system: TK-10
SK-OV-3 = system: SK-OV-3
SK-MEL-5 = system: SK-MEL-5
SF-295 = system: SF-295
NCI-H522 = system: NCI-H522
OVCAR-8 = system: OVCAR-8
EKVX = system: EKVX
COLO 205 = system: COLO 205
OVCAR-4 = system: OVCAR-4
K562 = system: K562
RPMI-8226 = system: RPMI-8226

Structure (SMILES)	GI50 (IGROV-1)	GI50 (M14)	GI50 (SW-620)	GI50 (MDA-MB-435)	GI50 (PC-3)	GI50 (A549)	GI50 (CCRF-CEM)	GI50 (OVCAR-5)	GI50 (SNB-19)	GI50 (TK-10)	GI50 (SK-OV-3)	GI50 (SK-MEL-5)	GI50 (SF-295)	GI50 (NCI-H522)	GI50 (OVCAR-8)	GI50 (EKVX)	GI50 (COLO 205)	GI50 (OVCAR-4)	GI50 (K562)	GI50 (RPMI-8226)
O=C(O)CCc1c2ccc(=O)c(O)c-2oc2c(O)c(O)ccc12	> 100 µM (inactive)	> 100 µM (inactive)	22.2 µM (inactive)	17.1 µM (inactive)	> 100 µM (inactive)	> 100 µM (inactive)	2.29 µM (inactive)	> 100 µM (inactive)	> 100 µM (inactive)	> 100 µM (inactive)	> 100 µM (inactive)	> 100 µM (inactive)	30.7 µM (inactive)	27.4 µM (inactive)	54.6 µM (inactive)	28.8 µM (inactive)	> 100 µM (inactive)	46.2 µM (inactive)	24 µM (inactive)	32 µM (inactive)
C[N+]1(CCN=C=NC2CCCCC2)CCOCC1	> 100 µM (inactive)	> 100 µM (inactive)	> 100 µM (inactive)	> 100 µM (inactive)	> 100 µM (inactive)	> 100 µM (inactive)	> 100 µM (inactive)	> 100 µM (inactive)	> 100 µM (inactive)	> 100 µM (inactive)	> 100 µM (inactive)	> 100 µM (inactive)	> 100 µM (inactive)	> 100 µM (inactive)	> 100 µM (inactive)	> 100 µM (inactive)	> 100 µM (inactive)	> 100 µM (inactive)	> 100 µM (inactive)	> 100 µM (inactive)
O=C1C(N2CCN(CCOCCO)CC2)=C(Cl)C(=O)c2ncccc21	16.9 µM (inactive)	20.8 µM (inactive)	23 µM (inactive)	1.88 µM (inactive)	20.7 µM (inactive)	> 10 µM (inactive)	1.92 µM (inactive)	24.5 µM (inactive)	> 10 µM (inactive)	29.4 µM (inactive)	> 10 µM (inactive)	16.6 µM (inactive)	> 10 µM (inactive)	2.08 µM (inactive)	18.1 µM (inactive)	19.6 µM (inactive)	8.28 µM (inactive)	20.3 µM (inactive)	3.2 µM (inactive)	19 µM (inactive)
CO[C@H](C)[C@](O)(C(=O)OCC1=CCN2CC[C@@H](O)[C@H]12)C(C)C	> 100 µM (inactive)	> 100 µM (inactive)	> 100 µM (inactive)	> 100 µM (inactive)	> 100 µM (inactive)	> 100 µM (inactive)	> 100 µM (inactive)	> 100 µM (inactive)	> 100 µM (inactive)	> 100 µM (inactive)	> 100 µM (inactive)	> 100 µM (inactive)	> 100 µM (inactive)	> 100 µM (inactive)	> 100 µM (inactive)	> 100 µM (inactive)	> 100 µM (inactive)	> 100 µM (inactive)	> 100 µM (inactive)	> 100 µM (inactive)
Cn1c(=O)c2c(nc(NCCCCl)n2CC(=O)O)n(C)c1=O	> 100 µM (inactive)	> 100 µM (inactive)	> 100 µM (inactive)	> 100 µM (inactive)	> 100 µM (inactive)	> 100 µM (inactive)	> 100 µM (inactive)	> 100 µM (inactive)	> 100 µM (inactive)	> 100 µM (inactive)	> 100 µM (inactive)	> 100 µM (inactive)	> 100 µM (inactive)	> 100 µM (inactive)	> 100 µM (inactive)	> 100 µM (inactive)	> 100 µM (inactive)	> 100 µM (inactive)	> 100 µM (inactive)	> 100 µM (inactive)
Cc1cc(C)nc(NS(=O)(=O)c2ccc(Nc3c4ccccc4nc4c(C(=O)NNCCO)cccc34)cc2)n1	> 100 µM (inactive)	> 100 µM (inactive)	> 100 µM (inactive)	79.3 µM (inactive)	> 100 µM (inactive)	> 100 µM (inactive)	21 µM (inactive)	> 100 µM (inactive)	> 100 µM (inactive)	> 100 µM (inactive)	> 100 µM (inactive)	> 100 µM (inactive)	> 100 µM (inactive)	39.5 µM (inactive)	> 100 µM (inactive)	> 100 µM (inactive)	> 100 µM (inactive)	> 100 µM (inactive)	31 µM (inactive)	15.7 µM (inactive)
C/C=C/C(O)P(=O)(OC)OC (stereo not given)	0.275 µM (active)	0.207 µM (active)	0.277 µM (active)	0.267 µM (active)	0.407 µM (active)	0.274 µM (active)	0.227 µM (active)	0.284 µM (active)	0.436 µM (active)	0.366 µM (active)	1.03 µM (active)	0.196 µM (active)	0.366 µM (active)	0.214 µM (active)	0.451 µM (active)	0.308 µM (active)	0.184 µM (active)	0.335 µM (active)	0.318 µM (active)	0.162 µM (active)
Cc1cccc(/C=N/NC(=S)NCc2ccccn2)n1	24 µM (inactive)	18.6 µM (inactive)	22.1 µM (inactive)	36.9 µM (inactive)	18.5 µM (inactive)	27.1 µM (inactive)	24.2 µM (inactive)	> 77.1 µM (inactive)	47.5 µM (inactive)	99.3 µM (inactive)	28.3 µM (inactive)	17.7 µM (inactive)	27.5 µM (inactive)	34.3 µM (inactive)	32.1 µM (inactive)	37.2 µM (inactive)	36.1 µM (inactive)	> 100 µM (inactive)	36.1 µM (inactive)	44.6 µM (inactive)
c1cc(-c2ccc(Oc3ccc(-c4ccncc4)cc3)cc2)ccn1	7.4 µM (inactive)	4.76 µM (inactive)	4.37 µM (inactive)	1.85 µM (inactive)	27 µM (inactive)	4.91 µM (inactive)	4.73 µM (inactive)	29.2 µM (inactive)	6.25 µM (inactive)	7.18 µM (inactive)	15.3 µM (inactive)	2.2 µM (inactive)	5.96 µM (inactive)	6.12 µM (inactive)	9.55 µM (inactive)	5.53 µM (inactive)	3.56 µM (inactive)	5.47 µM (inactive)	2.5 µM (inactive)	1.67 µM (inactive)
O=C(O)C1(Cc2ccccc2)Cc2cc3c(cc2C1)CCC3	> 100 µM (inactive)	44.1 µM (inactive)	> 100 µM (inactive)	> 100 µM (inactive)	> 100 µM (inactive)	51.4 µM (inactive)	45.1 µM (inactive)	> 100 µM (inactive)	> 100 µM (inactive)	> 100 µM (inactive)	> 100 µM (inactive)	> 100 µM (inactive)	> 100 µM (inactive)	> 100 µM (inactive)	> 100 µM (inactive)	54.2 µM (inactive)	> 100 µM (inactive)	> 100 µM (inactive)	72.9 µM (inactive)	58.1 µM (inactive)
CC(C)CC(NC(=O)C(C)(CI)Cc1ccccc1)C(=O)Nc1ccccc1 (stereo not given)	> 100 µM (inactive)	> 100 µM (inactive)	> 100 µM (inactive)	> 100 µM (inactive)	> 100 µM (inactive)	> 100 µM (inactive)	> 100 µM (inactive)	> 100 µM (inactive)	> 100 µM (inactive)	> 100 µM (inactive)	> 100 µM (inactive)	> 100 µM (inactive)	> 100 µM (inactive)	> 100 µM (inactive)	> 100 µM (inactive)	> 100 µM (inactive)	> 100 µM (inactive)	> 100 µM (inactive)	> 100 µM (inactive)	> 100 µM (inactive)
O=c1ssc(Cl)c1Nc1c(Cl)ssc1=O	18.2 µM (inactive)	19.2 µM (inactive)	15.8 µM (inactive)	18 µM (inactive)	18.9 µM (inactive)	21.7 µM (inactive)	3.78 µM (inactive)	19.4 µM (inactive)	25.7 µM (inactive)	19 µM (inactive)	25.9 µM (inactive)	17 µM (inactive)	41.4 µM (inactive)	19.6 µM (inactive)	21.5 µM (inactive)	20.6 µM (inactive)	11.3 µM (inactive)	18.2 µM (inactive)	6.44 µM (inactive)	9.08 µM (inactive)
O=C(O)C(O)C(O)C(O)C(=O)CO (stereo not given)	> 100 µM (inactive)	> 100 µM (inactive)	> 100 µM (inactive)	> 100 µM (inactive)	> 100 µM (inactive)	> 100 µM (inactive)	> 100 µM (inactive)	> 100 µM (inactive)	> 100 µM (inactive)	> 100 µM (inactive)	> 100 µM (inactive)	> 100 µM (inactive)	> 100 µM (inactive)	> 100 µM (inactive)	> 100 µM (inactive)	> 100 µM (inactive)	> 100 µM (inactive)	> 100 µM (inactive)	> 100 µM (inactive)	> 100 µM (inactive)
CC(=O)O[C@H]1C(=O)[C@@]2(C)C(C(OC(=O)c3ccccc3)[C@]3(O)CC(OC(=O)C(O)C(NC(=O)c4ccccc4)c4ccc(F)cc4)C(C)=C1C3(C)C)[C@]1(OC(C)=O)CO[C@@H]1C[C@@H]2O (stereo not given in full)	0.00365 µM (active)	0.00164 µM (active)	< 0.001 µM (active)	< 0.001 µM (active)	< 0.001 µM (active)	0.00104 µM (active)	0.0014 µM (active)	0.00141 µM (active)	0.00252 µM (active)	0.0296 µM (active)	0.00371 µM (active)	0.00375 µM (active)	0.00401 µM (active)	< 0.001 µM (active)	0.00164 µM (active)	0.00857 µM (active)	< 0.001 µM (active)	0.0904 µM (active)	< 0.001 µM (active)	< 0.001 µM (active)
